As a reminder, the Emax is the greatest response seen or fitted, relative to the assay's reference. As usually defined, the EC50 is the midpoint of the concentration-response curve.

A value given as a limit tells only on which side of the number the result lay.

These results are taken from ChEMBL document CHEMBL3352747, “Novel heterocyclic scaffolds of GW4064 as farnesoid X receptor agonists” (Bioorg Med Chem Lett, 2015).

Test [1] addresses T1, Bile acid receptor (Homo sapiens) (UniProt Q96RI1).
T1 sequence (whole entry): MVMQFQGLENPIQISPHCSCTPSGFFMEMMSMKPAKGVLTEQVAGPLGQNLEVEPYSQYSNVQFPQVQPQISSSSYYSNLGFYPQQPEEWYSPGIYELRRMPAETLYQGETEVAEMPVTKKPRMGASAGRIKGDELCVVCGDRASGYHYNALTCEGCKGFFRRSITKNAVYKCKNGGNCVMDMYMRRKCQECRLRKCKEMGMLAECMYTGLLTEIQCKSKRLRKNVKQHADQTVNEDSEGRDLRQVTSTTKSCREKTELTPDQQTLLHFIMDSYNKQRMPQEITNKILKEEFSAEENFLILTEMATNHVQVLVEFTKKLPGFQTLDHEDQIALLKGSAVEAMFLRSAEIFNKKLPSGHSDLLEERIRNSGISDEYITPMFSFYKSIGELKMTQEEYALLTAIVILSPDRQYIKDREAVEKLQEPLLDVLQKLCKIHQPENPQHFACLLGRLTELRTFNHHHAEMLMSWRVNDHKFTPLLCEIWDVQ
Put plainly: Agonist activity at FXR (unknown origin) assessed as ligand-mediated interaction of the SRC1 peptide with protein LBD by FRET assay relative to GW4064.

Test [2] has as its target T1, Bile acid receptor (Homo sapiens). Put plainly: Agonist activity at FXR (unknown origin) transfected into african green monkey CV1 cells assessed as ligand-mediated transcription by luciferase reporter/ transient transfection assay relative to GW4064. Format: cell-based. Conditions: CV-1.
Test [3] has as its target T2, Bile acid receptor (Homo sapiens, UniProt Q96RI1).
T2 sequence (Q96RI1 whole entry): T1 sequence (whole entry)
Put plainly: Agonist activity at FXR (unknown origin) transfected into african green monkey CV1 cells assessed as ligand-mediated transcription by luciferase reporter/ transient transfection assay. Format: cell-based, CV-1. Background: A reporter such as luciferase makes a cellular process visible.

Test [4] deals with T2, Bile acid receptor. Put plainly: Agonist activity at FXR (unknown origin) assessed as ligand-mediated interaction of the SRC1 peptide with protein LBD by FRET assay.

For the molecule `CC(C)c1oc(=O)n(CCc2c(Cl)cccc2Cl)c1COc1ccc(/C=C/c2cccc(C(=O)O)c2)c(Cl)c1`, the results for the Emax in test [1] and in test [2] were 99% and 82%, respectively. Further, the results for the EC50 in test [3] and in test [4] were 0.035 µM and 0.066 µM, respectively.
For the molecule `CC(C)n1cnc(COc2c(Cl)cccc2Cl)c1COc1ccc(/C=C/c2cccc(C(=O)O)c2)c(Cl)c1`, the Emax in test [1] came out at 88%; in test [2] it was 62%. The EC50 in test [3] was found to be 0.562 µM; in test [4], 0.309 µM.
For `CC(C)c1ncn(CCc2c(Cl)cccc2Cl)c1COc1ccc(/C=C/c2cccc(C(=O)O)c2)c(Cl)c1`, the Emax in test [1] stood at 49%; in test [2], 35%. Also, the EC50 in test [3] is 0.676 µM; in test [4] it was 0.617 µM.
Take `CC(C)c1oc(=O)n(Cc2c(Cl)cccc2Cl)c1COc1ccc(/C=C/c2cccc(C(=O)O)c2)c(Cl)c1`: the results for the Emax in test [1] and in test [2] were 90% and 104%, respectively. Also, the EC50 in test [3] was determined as 0.054 µM; in test [4], 0.11 µM.
As for `CC(C)n1nnc(-c2c(Cl)cccc2Cl)c1COc1ccc(/C=C/c2cccc(C(=O)O)c2)c(Cl)c1`, the values for the Emax in test [1] and in test [2] were 80% and 47%, respectively. The EC50 in test [3] was 0.145 µM; in test [4] it was 0.123 µM.
For `CC(C)c1occ(COc2c(Cl)cccc2Cl)c1COc1ccc(/C=C/c2cccc(C(=O)O)c2)c(Cl)c1`, the Emax in test [1] turned out to be 51%. Moreover, the concentration for a half-maximal effect (EC50) in test [3] (cv-1) is less than 10 µM; in test [4] it was 1.23 µM.
For `CC(C)c1nnn(-c2c(Cl)cccc2Cl)c1COc1ccc(/C=C/c2cccc(C(=O)O)c2)c(Cl)c1`, the values for the Emax in test [1] and in test [2] were 106% and 125%, respectively. For the same molecule, the figures for the EC50 in test [3] and in test [4] were 0.035 µM and 0.112 µM, respectively.
With `CC(C)c1cnn(-c2c(Cl)cccc2Cl)c1COc1ccc(/C=C/c2cccc(C(=O)O)c2)c(Cl)c1`, the values for the Emax in test [1] and in test [2] were 105% and 100%, respectively. Besides, the EC50 in test [3] was 0.02 µM; in test [4], 0.042 µM.
